Where two headings read alike, the source gives them in different places.
Test: Repeated once-daily oral dosing with food (Days 1-7) in healthy subjects, PK and PD
Format: in vivo, human
Settings: for Cmax: read-out: Cmax, Mean (SD); for AUC(0-inf): read-out: AUCinf, Mean (SD)
Description: A randomized, double-blind, placebo-controlled, parallel-dose group in-patient study is conducted to investigate the pharmacodynamic (PD) effects of crystalline Form II of Compound (I) in healthy subjects.
The study is designed as a three-part, sequential study. The sequential nature of the study ensures that a range of doses are investigated first in a young, healthy population (Part 1) before proceeding to higher doses in the healthy population and the comparator populations (intermediate age and elderly) (Parts 2 and 3). For the purposes of this study, “young” refers to a subject who is 18 to 45 years of age, “intermediate age” refers to a subject who is 46 to 64 years of age, and “elderly” refers to a subject who is 65 years of age or older.
After a screening period of up to 21 days (Days −23 to −3), 16 healthy, young male and female subjects are randomly assigned to a dose group as shown in Table 9.
Each parallel dose group is balanced for gender (approximately equal number of males and females). The randomized subjects are domiciled from Day −1 through Day 8. On Day −1, the subjects receive placebo tablets in the fed state and undergo ambulatory blood pressure monitoring (ABPM) and safety assessments to establish time-matched baselines. On Days 1-7, the subjects receive the study drug in the fed state and undergo safety, pharmacokinetic (PK) and pharmacodynamics (PD) assessments. On Days 8-11, follow-up PK and safety assessments are performed.
Safety assessments include Clinician-Administered Dissociative States Scale (CADSS), Columbia-Suicide Severity Rating Scale (C-SSRS), concomitant medication, adverse event (AE) and vital sign assessments. In PK assessments, blood samples are taken and analyzed to determine PK parameters such as Cmax, Tmax, AUC0-24, and t1/2. PD assessments include ABPM, plasma brain-derived neurotrophic factor (BDNF) measurements, and Profile of Mood States (POMS) assessments.
After a screening period of up to 21 days (Days −23 to −3), 16 subjects (8 healthy, young male and female subjects, and 8 healthy, intermediate age male and female subjects) are randomly assigned to a dose group as shown in Table 10.
After a screening period of up to 21 days (Days −23 to −3), 16 subjects (8 healthy, young male and female subjects, and 8 healthy, elderly male and female subjects) are randomly assigned to a dose group as shown in Table 11.

[1] = both sexes, human, plasma, oral, 12 mg, young subjects, 12 mg, Day 7
[2] = both sexes, human, plasma, oral, 16 mg, young subjects, 16 mg, Day 7
[3] = both sexes, human, plasma, oral, 20 mg, young subjects, 20 mg, Day 7

`Cc1ccc(COC(=O)N2CC[C@H](CNc3ncccn3)[C@H](F)C2)cc1` [Form II, 4-methylbenzyl (3S, 4R)-3-fluoro-4-[(pyrimidin-2-ylamino)methyl] piperidine-1-carboxylate] gave an AUC(0-t) (both sexes, human, plasma, oral, 12 mg, young subjects, 12 mg, Day 1, read-out: AUC0-24, Mean (SD)) of 1860 ng·h/mL, an AUC(0-t) (both sexes, human, plasma, oral, 12 mg, young subjects, 12 mg, Day 1, read-out: AUClast, Mean (SD)) of 1840 ng·h/mL and a Cmax (both sexes, human, plasma, oral, 12 mg, young subjects, 12 mg, Day 1) of 239 ng/mL. For the same compound, the Vd/F (both sexes, human, plasma, oral, 12 mg, young subjects, 12 mg, Day 1, read-out: Vz/F, Mean (SD)) was 197 L, the Tmax (both sexes, human, plasma, oral, 12 mg, young subjects, 12 mg, Day 1, read-out: tmax, Mean (SD)) was 1.77 h and the Tmax (both sexes, human, plasma, oral, 12 mg, young subjects, 12 mg, Day 1, read-out: tmax, Median) was 1.5 h. The AUC(0-t) (both sexes, human, plasma, oral, 12 mg, young subjects, 12 mg, Day 7, read-out: AUC0-24, Mean (SD)) was 3060 ng·h/mL, the AUC(0-inf) [1] was 5930 ng·h/mL and the AUC(0-t) (both sexes, human, plasma, oral, 12 mg, young subjects, 12 mg, Day 7, read-out: AUClast, Mean (SD)) was 5610 ng·h/mL. The Cmax [1] was 274 ng/mL, the Vd/F (both sexes, human, plasma, oral, 12 mg, young subjects, 12 mg, Day 7, read-out: Vss/F, Mean (SD)) was 115 L and the half-life (both sexes, human, plasma, oral, 12 mg, young subjects, 12 mg, Day 7, read-out: t1/2, Mean (SD) (converted)) was 1230 min. For the same compound, the Tmax (both sexes, human, plasma, oral, 12 mg, young subjects, 12 mg, Day 7, read-out: tmax, Mean (SD)) was 2.42 h, the Tmax (both sexes, human, plasma, oral, 12 mg, young subjects, 12 mg, Day 7, read-out: tmax, Median) was 2.5 h and the AUC(0-t) (both sexes, human, plasma, oral, 16 mg, young subjects, 16 mg, Day 1, read-out: AUC0-24, Mean (SD)) was 2660 ng·h/mL. The AUC(0-t) (both sexes, human, plasma, oral, 16 mg, young subjects, 16 mg, Day 1, read-out: AUClast, Mean (SD)) was 2630 ng·h/mL, the Cmax (both sexes, human, plasma, oral, 16 mg, young subjects, 16 mg, Day 1) was 306 ng/mL and the Vd/F (both sexes, human, plasma, oral, 16 mg, young subjects, 16 mg, Day 1, read-out: Vz/F, Mean (SD)) was 175 L. It also gave a Tmax (both sexes, human, plasma, oral, 16 mg, young subjects, 16 mg, Day 1, read-out: tmax, Mean (SD)) of 2.58 h, a Tmax (both sexes, human, plasma, oral, 16 mg, young subjects, 16 mg, Day 1, read-out: tmax, Median) of 3 h and an AUC(0-t) (both sexes, human, plasma, oral, 16 mg, young subjects, 16 mg, Day 7, read-out: AUC0-24, Mean (SD)) of 4300 ng·h/mL. The AUC(0-inf) [2] was 8020 ng·h/mL, the AUC(0-t) (both sexes, human, plasma, oral, 16 mg, young subjects, 16 mg, Day 7, read-out: AUClast, Mean (SD)) was 7450 ng·h/mL and the Cmax [2] was 413 ng/mL. It also gave a half-life (both sexes, human, plasma, oral, 16 mg, young subjects, 16 mg, Day 7, read-out: t1/2, Mean (SD) (converted)) of 1200 min, a Tmax (both sexes, human, plasma, oral, 16 mg, young subjects, 16 mg, Day 7, read-out: tmax, Mean (SD)) of 1.75 h and a Tmax (both sexes, human, plasma, oral, 16 mg, young subjects, 16 mg, Day 7, read-out: tmax, Median) of 1.75 h. The AUC(0-t) (both sexes, human, plasma, oral, 20 mg, young subjects, 20 mg, Day 1, read-out: AUC0-24, Mean (SD)) was 3520 ng·h/mL, the AUC(0-t) (both sexes, human, plasma, oral, 20 mg, young subjects, 20 mg, Day 1, read-out: AUClast, Mean (SD)) was 3480 ng·h/mL and the Cmax (both sexes, human, plasma, oral, 20 mg, young subjects, 20 mg, Day 1) was 384 ng/mL. The Vd/F (both sexes, human, plasma, oral, 20 mg, young subjects, 20 mg, Day 1, read-out: Vz/F, Mean (SD)) was 148 L, the Tmax (both sexes, human, plasma, oral, 20 mg, young subjects, 20 mg, Day 1, read-out: tmax, Mean (SD)) was 2.17 h and the Tmax (both sexes, human, plasma, oral, 20 mg, young subjects, 20 mg, Day 1, read-out: tmax, Median) was 2.25 h. It also gave an AUC(0-t) (both sexes, human, plasma, oral, 20 mg, young subjects, 20 mg, Day 7, read-out: AUC0-24, Mean (SD)) of 6040 ng·h/mL, an AUC(0-inf) [3] of 10500 ng·h/mL and an AUC(0-t) (both sexes, human, plasma, oral, 20 mg, young subjects, 20 mg, Day 7, read-out: AUClast, Mean (SD)) of 10100 ng·h/mL. For the same compound, the Cmax [3] was 534 ng/mL, the half-life (both sexes, human, plasma, oral, 20 mg, young subjects, 20 mg, Day 7, read-out: t1/2, Mean (SD) (converted)) was 1120 min and the Tmax (both sexes, human, plasma, oral, 20 mg, young subjects, 20 mg, Day 7, read-out: tmax, Mean (SD)) was 1.67 h. For the same compound, the Tmax (both sexes, human, plasma, oral, 20 mg, young subjects, 20 mg, Day 7, read-out: tmax, Median) was 1.5 h, the Tmax (both sexes, human, plasma, oral, Day 1, read-out: median Tmax values, range) was 2 to 3 h and the Vd (both sexes, human, plasma, oral, Day 7, read-out: average apparent volume of distribution, range) was 83 to 116 L. It also gave a half-life (both sexes, human, plasma, oral, Day 7, read-out: average t½, range) of 1020 to 1500 min, a half-life (both sexes, human, plasma, oral, Day 7, read-out: average t½, range across genders) of 1260 to 1440 min and a Tmax (both sexes, human, plasma, oral, Day 7, read-out: median Tmax values, range) of 1.5 to 3 h. For the same compound, the “Day 7/Day 1 Cmax Ratio, Mean (SD)” value (elderly, 12 mg) was 1.53 (0.13), the “Observed Accumulation Index, Mean (SD)” value (elderly, 12 mg) was 2.12 (0.22) and the “Steady State Accumulation Index, Mean (SD)” value (elderly, 12 mg) was 1.30 (0.11). For the same compound, the “CL/F, Mean (SD)” value (elderly, 12 mg, Day 1) was 5.87 (1.32) L/h.

— US12410153B2, “Compounds, compositions and methods” (Avalo Therapeutics, Inc., priority 2014, dated 2025)
